Experimental data from US20100305315A1, “Process for the preparation of 2-(primary/secondary amino)hydrocarbyl)-carbamoyl-7-oxo-2,6-diaza-bicyclo [3.2.0.]heptane-6-sulfonic acid derivatives” (Basilea Pharmaceutica AG, priority 2007, published 2010).

Assay: physchem
Details: 25 °C, organic solvent or mixture

## O=C1[C@H]2NCC[C@H]2N1S(=O)(=O)O [(1S,5R)-7-oxo-2,6-diaza-bicyclo[3.2.0]heptane-6-sulfonic acid]
  solubility: ≤ 200 mg/mL
